Patent publication US20230085307A1, “PYRIDAZINONE COMPOUND AND HERBICIDE” (NISSAN CHEMICAL CORPORATION, priority 2019, published 2023)

How the values were obtained:
late watergrass = assay: Test Example 1: herbicidal activity, application before weed generation under submerged conditions (Table 16, symbol A); format: in vivo, late watergrass (Echinochloa oryzicola); settings: 320 g/ha applied herbicide
Method in brief: (§1)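 Alluvial soil was flooded to 4 cm depth, weed seeds were sown mixed and 2.5-leaf rice seedlings were transplanted. On sowing day, the compound's emulsion, diluted in water to a set dose, was applied to the water surface. Plants grew at 25–30 °C and were scored 0–5 after three weeks.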

Japanese bulrush = assay: Test Example 1: herbicidal activity, application before weed generation under submerged conditions (Table 16, symbol B); format: in vivo, Japanese bulrush (Schoenoplectus juncoides); settings: 320 g/ha applied herbicide
Method in brief: as §1

oval-leafed pondweed = assay: Test Example 1: herbicidal activity, application before weed generation under submerged conditions (Table 16, symbol C); format: in vivo, oval-leafed pondweed (Monochoria vaginalis); settings: 320 g/ha applied herbicide
Method in brief: as §1

barnyard grass [1] = assay: Test Example 3: herbicidal effect by foliage application, Wagner pot (Table 18, symbol H); format: in vivo, barnyard grass (Echinochloa crus-galli); settings: 320 g/ha
Method in brief: (§2)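 Plants were sown in alluvial soil held under 0.1–0.5 cm standing water and grown 14 days in a greenhouse at 25–30 °C. An emulsifiable formulation, water-diluted to the set dose, was then sprayed onto the foliage, and effects were scored three weeks later using previously defined criteria.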

Chinese sprangletop = assay: Test Example 3: herbicidal effect by foliage application, Wagner pot (Table 18, symbol D); format: in vivo, chinese sprangletop (Leptochloa chinensis); settings: 320 g/ha
Method in brief: as §2

rice flat sedge = assay: Test Example 3: herbicidal effect by foliage application, Wagner pot (Table 18, symbol E); format: in vivo, rice flat sedge (Cyperus iria); settings: 320 g/ha
Method in brief: as §2

southern crabgrass [2] = assay: Test Example 4: herbicidal effect by soil treatment (Table 19, symbol F); format: in vivo, southern crabgrass (Digitaria ciliaris); settings: amount of applied herbicide 320 g/ha
Method in brief: (§3)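 Step 1: sow seeds in sterilized diluvial soil, cover ~1.5 cm. Step 2: spray diluted emulsion onto soil surface at predetermined rate. Step 3: greenhouse, 25–30° C, three weeks. Step 4: grade effect on each plant by earlier criteria.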

green foxtail [3] = assay: Test Example 4: herbicidal effect by soil treatment (Table 19, symbol G); format: in vivo, green foxtail (Setaria viridis); settings: amount of applied herbicide 320 g/ha
Method in brief: as §3

barnyard grass [4] = assay: Test Example 4: herbicidal effect by soil treatment (Table 19, symbol H); format: in vivo, barnyard grass (Echinochloa crus-galli); settings: amount of applied herbicide 320 g/ha
Method in brief: as §3

wild oat [5] = assay: Test Example 4: herbicidal effect by soil treatment (Table 19, symbol I); format: in vivo, wild oat (Avena fatua); settings: amount of applied herbicide 320 g/ha
Method in brief: as §3

blackgrass [6] = assay: Test Example 4: herbicidal effect by soil treatment (Table 19, symbol J); format: in vivo, blackgrass (Alopecurus myosuroides); settings: amount of applied herbicide 320 g/ha
Method in brief: as §3

Italian ryegrass [7] = assay: Test Example 4: herbicidal effect by soil treatment (Table 19, symbol K); format: in vivo, Italian ryegrass (Lolium multiflorum); settings: amount of applied herbicide 320 g/ha
Method in brief: as §3

windgrass [8] = assay: Test Example 4: herbicidal effect by soil treatment (Table 19, symbol L); format: in vivo, windgrass (Apera spica-venti); settings: amount of applied herbicide 320 g/ha
Method in brief: as §3

velvetleaf [9] = assay: Test Example 4: herbicidal effect by soil treatment (Table 19, symbol M); format: in vivo, velvetleaf (Abutilon theophrasti); settings: amount of applied herbicide 320 g/ha
Method in brief: as §3

redroot pigweed [10] = assay: Test Example 4: herbicidal effect by soil treatment (Table 19, symbol N); format: in vivo, redroot pigweed (Amaranthus retroflexus); settings: amount of applied herbicide 320 g/ha
Method in brief: as §3

lambsquarters [11] = assay: Test Example 4: herbicidal effect by soil treatment (Table 19, symbol O); format: in vivo, lambsquarters (Chenopodium album); settings: amount of applied herbicide 320 g/ha
Method in brief: as §3

chickweed [12] = assay: Test Example 4: herbicidal effect by soil treatment (Table 19, symbol P); format: in vivo, common chickweed (Stellaria media); settings: amount of applied herbicide 320 g/ha
Method in brief: as §3

false cleavers [13] = assay: Test Example 4: herbicidal effect by soil treatment (Table 19, symbol Q); format: in vivo, false cleavers (Galium spurium); settings: amount of applied herbicide 320 g/ha
Method in brief: as §3

persian speedwell [14] = assay: Test Example 4: herbicidal effect by soil treatment (Table 19, symbol R); format: in vivo, Persian speedwell (Veronica persica); settings: amount of applied herbicide 320 g/ha
Method in brief: as §3

southern crabgrass [15] = assay: Test Example 5: herbicidal effect by foliage application, plastic box (Table 20, symbol F); format: in vivo, southern crabgrass (Digitaria ciliaris); settings: foliage application, 320 g/ha, three weeks after application
Method in brief: (§4)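 Foliar spray test: emulsion formulation diluted in water to a set application rate, sprayed onto 14-day-old plants raised in diluvial soil at 25° C to 30° C under glass. Both herbicidal effect and crop effect rated visually three weeks later.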

green foxtail [16] = assay: Test Example 5: herbicidal effect by foliage application, plastic box (Table 20, symbol G); format: in vivo, green foxtail (Setaria viridis); settings: foliage application, 320 g/ha, three weeks after application
Method in brief: as §4

barnyard grass [17] = assay: Test Example 5: herbicidal effect by foliage application, plastic box (Table 20, symbol H); format: in vivo, barnyard grass (Echinochloa crus-galli); settings: foliage application, 320 g/ha, three weeks after application
Method in brief: as §4

wild oat [18] = assay: Test Example 5: herbicidal effect by foliage application, plastic box (Table 20, symbol I); format: in vivo, wild oat (Avena fatua); settings: foliage application, 320 g/ha, three weeks after application
Method in brief: as §4

blackgrass [19] = assay: Test Example 5: herbicidal effect by foliage application, plastic box (Table 20, symbol J); format: in vivo, blackgrass (Alopecurus myosuroides); settings: foliage application, 320 g/ha, three weeks after application
Method in brief: as §4

Italian ryegrass [20] = assay: Test Example 5: herbicidal effect by foliage application, plastic box (Table 20, symbol K); format: in vivo, Italian ryegrass (Lolium multiflorum); settings: foliage application, 320 g/ha, three weeks after application
Method in brief: as §4

windgrass [21] = assay: Test Example 5: herbicidal effect by foliage application, plastic box (Table 20, symbol L); format: in vivo, windgrass (Apera spica-venti); settings: foliage application, 320 g/ha, three weeks after application
Method in brief: as §4

velvetleaf [22] = assay: Test Example 5: herbicidal effect by foliage application, plastic box (Table 20, symbol M); format: in vivo, velvetleaf (Abutilon theophrasti); settings: foliage application, 320 g/ha, three weeks after application
Method in brief: as §4

redroot pigweed [23] = assay: Test Example 5: herbicidal effect by foliage application, plastic box (Table 20, symbol N); format: in vivo, redroot pigweed (Amaranthus retroflexus); settings: foliage application, 320 g/ha, three weeks after application
Method in brief: as §4

lambsquarters [24] = assay: Test Example 5: herbicidal effect by foliage application, plastic box (Table 20, symbol O); format: in vivo, lambsquarters (Chenopodium album); settings: foliage application, 320 g/ha, three weeks after application
Method in brief: as §4

chickweed [25] = assay: Test Example 5: herbicidal effect by foliage application, plastic box (Table 20, symbol P); format: in vivo, common chickweed (Stellaria media); settings: foliage application, 320 g/ha, three weeks after application
Method in brief: as §4

false cleavers [26] = assay: Test Example 5: herbicidal effect by foliage application, plastic box (Table 20, symbol Q); format: in vivo, false cleavers (Galium spurium); settings: foliage application, 320 g/ha, three weeks after application
Method in brief: as §4

persian speedwell [27] = assay: Test Example 5: herbicidal effect by foliage application, plastic box (Table 20, symbol R); format: in vivo, Persian speedwell (Veronica persica); settings: foliage application, 320 g/ha, three weeks after application
Method in brief: as §4

SMILES	Herbicidal effect on A: late watergrass (grade 0-5) (late watergrass)	Herbicidal effect on B: Japanese bulrush (grade 0-5) (Japanese bulrush)	Herbicidal effect on C: oval-leafed pondweed (grade 0-5) (oval-leafed pondweed)	herbicidal effect on H (barnyard grass), rating 0-5 (barnyard grass [1])	herbicidal effect on D (Chinese sprangletop), rating 0-5 (Chinese sprangletop)	herbicidal effect on E (rice flat sedge), rating 0-5 (rice flat sedge)	herbicidal effect rating, F: southern crabgrass (southern crabgrass [2])	herbicidal effect rating, G: green foxtail (green foxtail [3])	herbicidal effect rating, H: barnyard grass (barnyard grass [4])	herbicidal effect rating, I: wild oat (wild oat [5])	herbicidal effect rating, J: blackgrass (blackgrass [6])	herbicidal effect rating, K: Italian ryegrass (Italian ryegrass [7])	herbicidal effect rating, L: windgrass (windgrass [8])	herbicidal effect rating, M: velvetleaf (velvetleaf [9])	herbicidal effect rating, N: redroot pigweed (redroot pigweed [10])	herbicidal effect rating, O: lambsquarters (lambsquarters [11])	herbicidal effect rating, P: chickweed (chickweed [12])	herbicidal effect rating, Q: false cleavers (false cleavers [13])	herbicidal effect rating, R: persian speedwell (persian speedwell [14])	herbicidal effect grade, F: southern crabgrass (southern crabgrass [15])	other results
COc1ccc(F)c(-c2sc3ccccc3c2-c2c(O)c(C)nn(C)c2=O)c1 [1-053]	3 (Herbicidal rate of 40% or more and less than 70%)	2 (Herbicidal rate of 20% or more and less than 40%)	1 (Herbicidal rate of 5% or more and less than 20%)	3 (Herbicidal rate of 40% or more and less than 70%)	0 (Herbicidal rate of 5% or less (almost no effect))	1 (Herbicidal rate of 5% or more and less than 20%)	2 (Herbicidal rate of 20% or more and less than 40%)	3 (Herbicidal rate of 40% or more and less than 70%)	1 (Herbicidal rate of 5% or more and less than 20%)	0 (Herbicidal rate of 5% or less (almost no effect))	0 (Herbicidal rate of 5% or less (almost no effect))	3 (Herbicidal rate of 40% or more and less than 70%)	0 (Herbicidal rate of 5% or less (almost no effect))	2 (Herbicidal rate of 20% or more and less than 40%)	4 (Herbicidal rate of 70% or more and less than 90%)	5 (Herbicidal rate of 90% or more (almost completely withered))	5 (Herbicidal rate of 90% or more (almost completely withered))	0 (Herbicidal rate of 5% or less (almost no effect))	3 (Herbicidal rate of 40% or more and less than 70%)	3 (Herbicidal rate of 40% or more and less than 70%)	herbicidal effect grade, G: green foxtail (green foxtail [16]): 4 (Herbicidal rate of 70% or more and less than 90%); herbicidal effect grade, H: barnyard grass (barnyard grass [17]): 3 (Herbicidal rate of 40% or more and less than 70%); herbicidal effect grade, I: wild oat (wild oat [18]): 3 (Herbicidal rate of 40% or more and less than 70%); herbicidal effect grade, J: blackgrass (blackgrass [19]): 2 (Herbicidal rate of 20% or more and less than 40%); herbicidal effect grade, K: Italian ryegrass (Italian ryegrass [20]): 3 (Herbicidal rate of 40% or more and less than 70%); herbicidal effect grade, L: windgrass (windgrass [21]): 3 (Herbicidal rate of 40% or more and less than 70%); herbicidal effect grade, M: velvetleaf (velvetleaf [22]): 5 (Herbicidal rate of 90% or more (almost completely withered)); herbicidal effect grade, N: redroot pigweed (redroot pigweed [23]): 4 (Herbicidal rate of 70% or more and less than 90%); herbicidal effect grade, O: lambsquarters (lambsquarters [24]): 4 (Herbicidal rate of 70% or more and less than 90%); herbicidal effect grade, P: chickweed (chickweed [25]): 5 (Herbicidal rate of 90% or more (almost completely withered)); herbicidal effect grade, Q: false cleavers (false cleavers [26]): 3 (Herbicidal rate of 40% or more and less than 70%); herbicidal effect grade, R: persian speedwell (persian speedwell [27]): 5 (Herbicidal rate of 90% or more (almost completely withered))
CCCC(=O)Oc1c(C)nn(C)c(=O)c1-c1c(-c2ccc(OC)c(C)c2)sc2ccccc12 [1-069]	3 (Herbicidal rate of 40% or more and less than 70%)	3 (Herbicidal rate of 40% or more and less than 70%)	3 (Herbicidal rate of 40% or more and less than 70%)	3 (Herbicidal rate of 40% or more and less than 70%)	0 (Herbicidal rate of 5% or less (almost no effect))	5 (Herbicidal rate of 90% or more (almost completely withered))	0 (Herbicidal rate of 5% or less (almost no effect))	0 (Herbicidal rate of 5% or less (almost no effect))	0 (Herbicidal rate of 5% or less (almost no effect))	0 (Herbicidal rate of 5% or less (almost no effect))	0 (Herbicidal rate of 5% or less (almost no effect))	0 (Herbicidal rate of 5% or less (almost no effect))	0 (Herbicidal rate of 5% or less (almost no effect))	0 (Herbicidal rate of 5% or less (almost no effect))	0 (Herbicidal rate of 5% or less (almost no effect))	0 (Herbicidal rate of 5% or less (almost no effect))	3 (Herbicidal rate of 40% or more and less than 70%)	0 (Herbicidal rate of 5% or less (almost no effect))	4 (Herbicidal rate of 70% or more and less than 90%)	0 (Herbicidal rate of 5% or less (almost no effect))	herbicidal effect grade, G: green foxtail (green foxtail [16]): 0 (Herbicidal rate of 5% or less (almost no effect)); herbicidal effect grade, H: barnyard grass (barnyard grass [17]): 0 (Herbicidal rate of 5% or less (almost no effect)); herbicidal effect grade, I: wild oat (wild oat [18]): 1 (Herbicidal rate of 5% or more and less than 20%); herbicidal effect grade, J: blackgrass (blackgrass [19]): 0 (Herbicidal rate of 5% or less (almost no effect)); herbicidal effect grade, K: Italian ryegrass (Italian ryegrass [20]): 3 (Herbicidal rate of 40% or more and less than 70%); herbicidal effect grade, L: windgrass (windgrass [21]): 0 (Herbicidal rate of 5% or less (almost no effect)); herbicidal effect grade, M: velvetleaf (velvetleaf [22]): 5 (Herbicidal rate of 90% or more (almost completely withered)); herbicidal effect grade, N: redroot pigweed (redroot pigweed [23]): 5 (Herbicidal rate of 90% or more (almost completely withered)); herbicidal effect grade, O: lambsquarters (lambsquarters [24]): 0 (Herbicidal rate of 5% or less (almost no effect)); herbicidal effect grade, P: chickweed (chickweed [25]): 4 (Herbicidal rate of 70% or more and less than 90%); herbicidal effect grade, Q: false cleavers (false cleavers [26]): 0 (Herbicidal rate of 5% or less (almost no effect)); herbicidal effect grade, R: persian speedwell (persian speedwell [27]): 4 (Herbicidal rate of 70% or more and less than 90%)
